We go through three compounds from publication PMC4483627 (Marine Drugs, 2015).

Test [1] has as its target T1, rat nAChR α3β2 (Rattus norvegicus, UniProt P04757+P12390).
T1 construct: expressed in transfected cells; host or cells: Xenopus oocytes injected with cRNA
As to conditions: cited from earlier work.

Test [2] addresses T2, rat nAChR α4β2 (Rattus norvegicus, UniProt P09483+P12390).
T2 construct: expressed in transfected cells; host or cells: Xenopus oocytes injected with cRNA
In words: cell-based.

Test [3] deals with T1, rat nAChR α3β2. Description: cell-based. Type of test: cell-based.
Test [4] concerns the target T3, rat nAChR α2β2 (Rattus norvegicus, UniProt P12389+P12390).
T3 construct: expressed in transfected cells; host or cells: Xenopus oocytes injected with cRNA
Description: cell-based.

Test [5] has as its target T4, rat nAChR α2β4 (Rattus norvegicus, UniProt P12389+P12392).
T4 construct: expressed in transfected cells; host or cells: Xenopus oocytes injected with cRNA
In words: cell-based. As to conditions: IC50 α2β4.

Test [6] concerns the target T5, rat nAChR α3β4 (Rattus norvegicus, UniProt P04757+P12392).
T5 construct: expressed in transfected cells; host or cells: Xenopus oocytes injected with cRNA
In words: cell-based.

The target of test [7] is T6, rat nAChR α4β4 (Rattus norvegicus, UniProt P09483+P12392).
T6 construct: expressed in transfected cells; host or cells: Xenopus oocytes injected with cRNA
Description: cell-based.

Test [8] concerns the target T7, rat nAChR α9α10 (Rattus norvegicus, UniProt P43144+Q9JLB5).
T7 construct: expressed in transfected cells; host or cells: Xenopus oocytes injected with cRNA
In words: cell-based.

The target in test [9] is T8, rat nAChR α7 (Rattus norvegicus, UniProt Q05941).
T8 construct: expressed in transfected cells; host or cells: Xenopus oocytes injected with cRNA
In words: cell-based.

Test [10] deals with T9, rat nAChR α6/α3β2β3 (Rattus norvegicus, UniProt P04757+P12390+P12391+P43143).
T9 construct: expressed in transfected cells; host or cells: Xenopus oocytes injected with cRNA
In words: cell-based.

Test [11] has as its target T1, rat nAChR α3β2. In words: cell-based. Type of test: cell-based. The source holds these as a separate data set.

Like-named read-outs stand apart in the source and are kept apart here. Positions of bridges follow the written chain, without caps; N, C: chain ends. Residues, ends and D or L forms follow the SMILES beside them. Bounds are passed on as bounds.

T1 sequence (P04757 26-499 limits assumed): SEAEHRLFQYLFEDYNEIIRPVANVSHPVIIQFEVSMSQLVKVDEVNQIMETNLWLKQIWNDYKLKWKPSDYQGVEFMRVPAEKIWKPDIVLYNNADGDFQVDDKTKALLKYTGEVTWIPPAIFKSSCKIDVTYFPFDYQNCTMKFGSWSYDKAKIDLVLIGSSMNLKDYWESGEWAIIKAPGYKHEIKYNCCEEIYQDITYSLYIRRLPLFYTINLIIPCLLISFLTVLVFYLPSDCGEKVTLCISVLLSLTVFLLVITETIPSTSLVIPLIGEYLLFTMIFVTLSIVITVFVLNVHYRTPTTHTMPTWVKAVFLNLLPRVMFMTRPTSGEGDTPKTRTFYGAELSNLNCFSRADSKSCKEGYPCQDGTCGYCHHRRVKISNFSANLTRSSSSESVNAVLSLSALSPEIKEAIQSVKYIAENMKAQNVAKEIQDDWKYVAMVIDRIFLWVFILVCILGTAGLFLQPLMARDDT
T1 sequence (P12390 25-500 limits assumed): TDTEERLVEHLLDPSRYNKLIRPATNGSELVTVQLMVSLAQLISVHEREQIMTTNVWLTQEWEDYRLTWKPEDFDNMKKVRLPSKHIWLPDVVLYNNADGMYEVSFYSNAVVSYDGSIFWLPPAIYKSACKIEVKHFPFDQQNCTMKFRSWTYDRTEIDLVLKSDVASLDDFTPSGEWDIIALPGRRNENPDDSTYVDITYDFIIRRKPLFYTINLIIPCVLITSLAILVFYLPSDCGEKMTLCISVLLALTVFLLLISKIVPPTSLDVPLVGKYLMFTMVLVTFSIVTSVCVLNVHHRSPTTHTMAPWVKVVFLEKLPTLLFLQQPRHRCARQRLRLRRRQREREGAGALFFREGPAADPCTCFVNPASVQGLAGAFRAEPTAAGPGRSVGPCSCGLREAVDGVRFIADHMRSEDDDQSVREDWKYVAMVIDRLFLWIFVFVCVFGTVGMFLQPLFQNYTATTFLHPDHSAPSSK
T2 sequence (P09483 31-630 limits assumed): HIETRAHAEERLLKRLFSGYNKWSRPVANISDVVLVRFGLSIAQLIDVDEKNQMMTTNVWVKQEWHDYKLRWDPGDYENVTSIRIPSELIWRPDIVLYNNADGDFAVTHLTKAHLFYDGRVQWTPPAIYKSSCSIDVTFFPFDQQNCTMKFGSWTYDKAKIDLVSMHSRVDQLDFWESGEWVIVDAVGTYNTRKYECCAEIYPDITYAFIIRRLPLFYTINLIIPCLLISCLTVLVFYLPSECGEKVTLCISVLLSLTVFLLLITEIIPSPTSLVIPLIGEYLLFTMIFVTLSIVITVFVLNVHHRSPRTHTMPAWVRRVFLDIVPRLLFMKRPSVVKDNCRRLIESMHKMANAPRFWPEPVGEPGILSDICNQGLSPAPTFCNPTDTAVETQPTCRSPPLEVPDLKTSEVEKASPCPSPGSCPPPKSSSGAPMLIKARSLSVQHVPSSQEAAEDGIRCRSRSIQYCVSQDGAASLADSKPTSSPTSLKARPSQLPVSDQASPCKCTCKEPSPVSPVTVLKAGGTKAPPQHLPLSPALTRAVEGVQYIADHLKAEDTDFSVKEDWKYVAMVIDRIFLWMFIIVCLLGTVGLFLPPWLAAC
T2 sequence (P12390 25-500 limits assumed): as the sequence (P12390 25-500 limits assumed) above
T6 sequence (P09483 31-630 limits assumed): as the sequence (P09483 31-630 limits assumed) above
T6 sequence (P12392 21-495 limits assumed): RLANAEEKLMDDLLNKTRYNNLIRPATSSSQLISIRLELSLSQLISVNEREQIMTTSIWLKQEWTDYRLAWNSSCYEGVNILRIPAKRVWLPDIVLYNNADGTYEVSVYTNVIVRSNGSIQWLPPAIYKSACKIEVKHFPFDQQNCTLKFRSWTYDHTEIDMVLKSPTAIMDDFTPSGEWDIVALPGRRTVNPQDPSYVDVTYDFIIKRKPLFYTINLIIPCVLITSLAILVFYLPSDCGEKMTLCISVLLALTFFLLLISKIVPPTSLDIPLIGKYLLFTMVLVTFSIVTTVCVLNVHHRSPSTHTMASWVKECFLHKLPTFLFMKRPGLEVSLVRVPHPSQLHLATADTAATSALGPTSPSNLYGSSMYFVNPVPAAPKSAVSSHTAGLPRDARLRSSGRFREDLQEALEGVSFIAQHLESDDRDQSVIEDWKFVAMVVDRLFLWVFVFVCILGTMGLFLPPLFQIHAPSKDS
T4 sequence (P12389 28-511 limits assumed): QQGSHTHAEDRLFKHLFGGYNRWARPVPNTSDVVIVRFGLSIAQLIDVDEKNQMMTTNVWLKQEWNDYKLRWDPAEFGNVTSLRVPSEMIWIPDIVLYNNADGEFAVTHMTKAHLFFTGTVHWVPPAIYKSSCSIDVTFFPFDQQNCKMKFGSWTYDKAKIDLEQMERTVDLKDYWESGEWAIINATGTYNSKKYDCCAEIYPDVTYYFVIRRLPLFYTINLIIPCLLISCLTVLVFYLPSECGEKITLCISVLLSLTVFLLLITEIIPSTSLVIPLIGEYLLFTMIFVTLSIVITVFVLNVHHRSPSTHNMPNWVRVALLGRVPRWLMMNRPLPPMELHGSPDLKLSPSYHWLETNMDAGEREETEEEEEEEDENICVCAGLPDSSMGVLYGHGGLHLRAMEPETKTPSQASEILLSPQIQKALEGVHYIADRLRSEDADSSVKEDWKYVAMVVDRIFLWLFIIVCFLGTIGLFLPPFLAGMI
T4 sequence (P12392 21-495 limits assumed): as the sequence (P12392 21-495 limits assumed) above
T3 sequence (P12389 28-511 limits assumed): as the sequence (P12389 28-511 limits assumed) above
T3 sequence (P12390 25-500 limits assumed): as the sequence (P12390 25-500 limits assumed) above
T7 sequence (P43144 26-479 limits assumed): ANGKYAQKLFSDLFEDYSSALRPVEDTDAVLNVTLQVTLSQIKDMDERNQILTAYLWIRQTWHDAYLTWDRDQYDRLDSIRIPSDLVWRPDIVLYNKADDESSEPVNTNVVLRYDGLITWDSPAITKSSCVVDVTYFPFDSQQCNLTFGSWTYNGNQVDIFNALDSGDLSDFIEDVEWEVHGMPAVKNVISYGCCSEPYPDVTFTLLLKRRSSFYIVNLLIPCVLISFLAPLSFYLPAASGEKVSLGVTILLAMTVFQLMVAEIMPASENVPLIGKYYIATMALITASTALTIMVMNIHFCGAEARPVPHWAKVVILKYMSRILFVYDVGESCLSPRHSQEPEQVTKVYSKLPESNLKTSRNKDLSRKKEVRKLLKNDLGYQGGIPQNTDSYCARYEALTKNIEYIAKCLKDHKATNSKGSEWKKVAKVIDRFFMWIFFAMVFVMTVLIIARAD
T7 sequence (Q9JLB5 25-447 limits assumed): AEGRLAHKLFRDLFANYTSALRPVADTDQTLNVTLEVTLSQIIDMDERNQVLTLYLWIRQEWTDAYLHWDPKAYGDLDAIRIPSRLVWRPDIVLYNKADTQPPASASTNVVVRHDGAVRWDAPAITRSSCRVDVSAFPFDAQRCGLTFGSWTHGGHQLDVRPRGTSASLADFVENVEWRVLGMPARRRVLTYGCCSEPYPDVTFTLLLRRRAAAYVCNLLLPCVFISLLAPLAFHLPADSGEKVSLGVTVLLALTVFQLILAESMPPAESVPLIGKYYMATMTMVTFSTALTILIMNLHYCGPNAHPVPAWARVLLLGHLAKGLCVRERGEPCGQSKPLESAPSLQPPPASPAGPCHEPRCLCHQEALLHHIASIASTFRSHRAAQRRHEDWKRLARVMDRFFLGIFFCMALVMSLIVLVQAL
T5 sequence (P04757 26-499 limits assumed): as the sequence (P04757 26-499 limits assumed) above
T5 sequence (P12392 21-495 limits assumed): as the sequence (P12392 21-495 limits assumed) above
T8 sequence (Q05941 23-502 limits assumed): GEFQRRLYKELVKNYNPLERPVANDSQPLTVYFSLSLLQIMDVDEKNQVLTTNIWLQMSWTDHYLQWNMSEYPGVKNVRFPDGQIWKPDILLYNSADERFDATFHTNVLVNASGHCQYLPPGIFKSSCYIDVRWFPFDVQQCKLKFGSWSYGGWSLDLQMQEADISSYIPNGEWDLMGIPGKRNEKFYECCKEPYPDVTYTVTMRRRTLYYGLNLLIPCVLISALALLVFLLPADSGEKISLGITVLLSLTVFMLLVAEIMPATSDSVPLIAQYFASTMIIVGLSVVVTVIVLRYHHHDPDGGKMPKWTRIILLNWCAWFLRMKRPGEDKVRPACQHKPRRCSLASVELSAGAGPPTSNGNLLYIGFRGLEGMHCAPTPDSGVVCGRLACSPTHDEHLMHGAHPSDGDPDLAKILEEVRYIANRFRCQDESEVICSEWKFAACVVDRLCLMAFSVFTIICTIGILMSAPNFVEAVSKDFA

As usually defined, the IC50 is the concentration that inhibits the measured activity by half. Consider Vc1.1, for which the IC50 in test [1] is 5.53 µM.

Take `CC(C)C[C@@H]1NC(=O)[C@H](CCC(=O)O)NC(=O)[C@@H]2CCCN2C(=O)[C@H](CC(N)=O)NC(=O)[C@H](CO)NC(=O)[C@H](C(C)C)NC(=O)[C@H](Cc2c[nH]cn2)NC(=O)[C@@H]2CSSC[C@H](NC(=O)[C@H](CCC(=O)O)NC(=O)[C@@H]3CCCN3)C(=O)N[C@@H](CSSC[C@@H](C(N)=O)NC1=O)C(=O)N[C@@H]([C@@H](C)O)C(=O)N[C@@H](Cc1c[nH]cn1)C(=O)N1CCC[C@H]1C(=O)N[C@@H](C)C(=O)N2` [Mr1.7[H13N]] (H-PECCTHPACHVSNPELC-NH2; disulfide 3-9, 4-17): the 50% inhibitory concentration (IC50) in test [2] was greater than 10 µM; in [3], 0.541 µM; in [4], greater than 10 µM; in test [5], greater than 10 µM; in test [6] it was greater than 10 µM; in test [7], greater than 10 µM. For the same compound, the results for the half-inhibitory concentration (IC50) in test [8] and in test [9] were 1.83 µM and 2.42 µM, respectively.

As a reminder, the kon is a measure of how fast the partners come together. Low readings indicate slower complex formation, high ones faster complex formation. Broadly, the koff is a measure of how fast the partners let go of each other. The low end stands for a long-lived complex, the high end for a short-lived complex. For the compound `CC(C)C[C@@H]1NC(=O)[C@H](CCC(=O)O)NC(=O)[C@@H]2CCCN2C(=O)[C@H](Cc2c[nH]cn2)NC(=O)[C@H](CO)NC(=O)[C@H](C(C)C)NC(=O)[C@H](Cc2c[nH]cn2)NC(=O)[C@@H]2CSSC[C@H](NC(=O)[C@H](CCC(=O)O)NC(=O)[C@@H]3CCCN3)C(=O)N[C@@H](CSSC[C@@H](C(N)=O)NC1=O)C(=O)N[C@@H]([C@@H](C)O)C(=O)N[C@@H](Cc1c[nH]cn1)C(=O)N1CCC[C@H]1C(=O)N[C@@H](C)C(=O)N2` [Mr1.7] (H-PECCTHPACHVSHPELC-NH2; disulfide 3-9, 4-17), the IC50 is greater than 10 µM in [2]; 0.284 µM in test [10]; greater than 10 µM in [4]; greater than 10 µM in test [5]; greater than 10 µM in [6]; greater than 10 µM in test [7]. Besides, the half-inhibitory concentration (IC50) in test [8] was 0.186 µM; in test [9], greater than 10 µM. The same compound had a kon in [11] of 91300 M⁻¹ s⁻¹. This compound had a koff in [11] (SEM) of 0.00312 s⁻¹.
